According to patent US4348393A, “N-Aryl oxazolidinones, oxazolidinethiones, pyrrolidinones, pyrrolidines and thiazolidinones” (Delalande S.A., priority 1978, dated 1982):
Like-named read-outs stand apart in the source and are kept apart here.

Assays:
[1] = tested on: generalized trembling caused by dl-5-hydroxytryptophane; experiment: Test A: potentiation in mice of generalized trembling caused by dl-5-hydroxytryptophane; assay type: in vivo; conditions: Mus musculus, po, read-out: Test A ED 50
Description: Test A: Potentiation in mice of generalized trembling caused by an interperitoneal injection (200 mg/kg) of dl-5-hydroxytryptophane, following the protocol described by C. GOURET and G. RAYNAUD in J. Pharmacol. (Paris), (1974), 5, 231.

[2] = tested on: ptosis observed one hour after reserpine; experiment: Test B: antagonism of reserpine-induced ptosis in mice; assay type: in vivo; conditions: Mus musculus, 1 h, po, antagonism of ptosis one hour after reserpine 2 mg/kg intravenous, read-out: Test B ED 50
Description: Test B: Antagonism with respect to the ptosis observed one hour after an intravenous injection (2 mg/kg) of reserpine given to mice, following the protocol described by C.

[3] = mice, potentiation of trembling by dl-5-hydroxytryptophane 200 mg/kg interperitoneal

SMILES | ED50 [1, 3] [mg/kg] | ED50 [2] [mg/kg] | ED50 [1] [mg/kg]
CC(C)(C)C(=O)OCC1CN(c2ccc(OCc3cccc(Cl)c3)cc2)C(=O)O1 (stereo not drawn) [compound 34] | 7 | 7.5 | –
CCCCCCCCC(=O)OCC1CN(c2ccc(OCc3cccc(Cl)c3)cc2)C(=O)O1 (stereo not drawn) [compound 35] | 19 | 6.5 | –
CC(=O)OCC1CN(c2ccc(OCc3cccc([N+](=O)[O-])c3)cc2)C(=O)O1 (stereo not drawn) [compound 36, Para (meta-nitrobenzyloxy) phenyl-3 acetoxy-methyl-5 oxazolidinone-2] | 1.7 | 1.5 | –
CCC(=O)OCC1CN(c2ccc(OCc3cccc([N+](=O)[O-])c3)cc2)C(=O)O1 (stereo not drawn) [compound 37] | 1.9 | 2 | –
CC(C)C(=O)OCC1CN(c2ccc(OCc3cccc([N+](=O)[O-])c3)cc2)C(=O)O1 (stereo not drawn) [compound 38] | 1.5 | 2 | –
CCCCC(=O)OCC1CN(c2ccc(OCc3cccc([N+](=O)[O-])c3)cc2)C(=O)O1 (stereo not drawn) [compound 39] | 1.75 | 1.6 | –
CC(C)(C)C(=O)OCC1CN(c2ccc(OCc3cccc([N+](=O)[O-])c3)cc2)C(=O)O1 (stereo not drawn) [compound 40] | 6.2 | 1.5 | –
O=C(OCC1CN(c2ccc(OCc3cccc([N+](=O)[O-])c3)cc2)C(=O)O1)C1CCCCC1 (stereo not drawn) [compound 41] | 6.2 | 4.5 | –
CCCCCCCCC(=O)OCC1CN(c2ccc(OCc3cccc([N+](=O)[O-])c3)cc2)C(=O)O1 (stereo not drawn) [compound 42] | 1.25 | 2 | –
O=C(OCC1CN(c2ccc(OCc3cccc([N+](=O)[O-])c3)cc2)C(=O)O1)c1ccccc1 (stereo not drawn) [compound 43] | 15 | 17.5 | –
COCC1CN(c2cccc(C)c2)C(=O)O1 (stereo not drawn) [compound 45] | 45 | 50 | –
CCCCOc1ccc(N2CC(COC)OC2=O)cc1 (stereo not drawn) [compound 46] | 1.5 | 2 | –
CCCCOc1ccc(N2CC(COC(C)C)OC2=O)cc1 (stereo not drawn) [compound 47, para-n-butyloxy phenyl-3 isopropyloxymethyl-5 oxazolidinone-2] | 18 | 36 | –
CCCCOc1ccc(N2CC(COC3CCCCC3)OC2=O)cc1 (stereo not drawn) [compound 48] | 50 | 50 | –
CC(C)OCC1CN(c2ccc(OCC3CCCC3)cc2)C(=O)O1 (stereo not drawn) [compound 50] | 17.5 | 15 | –
O=C1OC(COC2CCCCC2)CN1c1ccc(OCC2CCCC2)cc1 (stereo not drawn) [compound 51] | 27 | 50 | –
CC(C)OCC1CN(c2ccc(OCCC#N)cc2)C(=O)O1 (stereo not drawn) [compound 53] | 5 | 5.8 | –
N#CCCOc1ccc(N2CC(COC3CCCCC3)OC2=O)cc1 (stereo not drawn) [compound 54] | 14 | 12.5 | –
COCC1CN(c2ccc(OCC3CCCCC3)cc2)C(=O)O1 (stereo not drawn) [compound 55] | 0.6 | 1.1 | –
COCC1CN(c2ccc(OCc3ccccc3)cc2)C(=O)O1 (stereo not drawn) [compound 57] | 7.8 | 9 | –
CC(C)OCC1CN(c2ccc(OCc3ccccc3)cc2)C(=O)O1 (stereo not drawn) [compound 58] | 50 | 8.8 | –
COCC1CN(c2ccc(OCc3cccc(Cl)c3)cc2)C(=O)O1 (stereo not drawn) [compound 59] | 3.4 | 3.1 | –
CC(C)OCC1CN(c2ccc(OCc3cccc([N+](=O)[O-])c3)cc2)C(=O)O1 (stereo not drawn) [compound 62] | 3.6 | 2.4 | –

SMILES | ED50 [1, 3] [mg/kg] | ED50 [2] [mg/kg] | ED50 [1] [mg/kg]
O=C1OC(COC2CCCCC2)CN1c1ccc(OCc2cccc([N+](=O)[O-])c2)cc1 (stereo not drawn) [compound 63] | 9.4 | 16.5 | –
COCC1CN(c2ccc(OCc3cccc(C#N)c3)cc2)C(=O)O1 (stereo not drawn) [compound 65] | 0.28 | 0.75 | –
COCC1CN(c2ccc(OCc3cccc(C(F)(F)F)c3)cc2)C(=O)O1 (stereo not drawn) [compound 66] | 4.7 | 6 | –
COCC1CN(c2ccc(OCc3cccc(F)c3)cc2)C(=O)O1 (stereo not drawn) [compound 67] | 4.4 | 5.6 | –
COCC1CN(c2ccc(OCc3ccc(Cl)cc3)cc2)C(=O)O1 (stereo not drawn) [compound 68] | 5 | 6.2 | –
CCOCC1CN(c2ccc(OCc3cccc([N+](=O)[O-])c3)cc2)C(=O)O1 (stereo not drawn) [compound 69] | 0.5 | 0.2 | –
CCCOCC1CN(c2ccc(OCc3cccc([N+](=O)[O-])c3)cc2)C(=O)O1 (stereo not drawn) [compound 70] | 0.8 | 0.6 | –
C=CCOCC1CN(c2ccc(OCc3cccc([N+](=O)[O-])c3)cc2)C(=O)O1 (stereo not drawn) [compound 71] | 1 | 0.8 | –
C#CCOCC1CN(c2ccc(OCc3cccc([N+](=O)[O-])c3)cc2)C(=O)O1 (stereo not drawn) [compound 72] | 0.8 | 1 | –
COCOCC1CN(c2ccc(OCc3cccc([N+](=O)[O-])c3)cc2)C(=O)O1 (stereo not drawn) [compound 73] | 0.6 | 0.8 | –
CCCCOc1ccc(N2CC(CNC)OC2=O)cc1 (stereo not drawn) [compound 74] | 4 | 6.2 | –
NCC1CN(c2ccc(OCC3CCCC3)cc2)C(=O)O1 (stereo not drawn) [compound 76] | 2.1 | 6.2 | –
CNCC1CN(c2ccc(OCCC(C)C)cc2)C(=O)O1 (stereo not drawn) [compound 79] | 6.2 | 2 | –
NCC1CN(c2ccc(OCc3ccccc3)cc2)C(=O)O1 (stereo not drawn) [compound 80] | 20 | 25 | –
NCC1CN(c2ccc(OCc3cccc(Cl)c3)cc2)C(=O)O1 (stereo not drawn) [compound 82] | 9.6 | 12 | –
CNCC1CN(c2ccc(OCc3cccc(Cl)c3)cc2)C(=O)O1 (stereo not drawn) [compound 83] | 12.5 | 6.2 | –
NCC1CN(c2ccc(OCc3cccc([N+](=O)[O-])c3)cc2)C(=O)O1 (stereo not drawn) [compound 84] | 3 | 1.3 | –
CN(C)CC1CN(c2ccc(OCc3cccc([N+](=O)[O-])c3)cc2)C(=O)O1 (stereo not drawn) [compound 86] | – | 4.8 | 4.5
CCOc1ccc(N2CC(CO)OC2=S)cc1 (stereo not drawn) [compound 87, para ethoxyphenyl-3 hydroxymethyl-5 oxazolidine thione-2] | 29 | 44 | –
CCCOc1ccc(N2CC(CO)OC2=S)cc1 (stereo not drawn) [compound 88] | 12.5 | 33 | –
CCCCOc1ccc(N2CC(CO)OC2=S)cc1 (stereo not drawn) [compound 89] | 12.5 | 12.5 | –
OCC1CN(c2ccc(OCC3CCCCC3)cc2)C(=S)O1 (stereo not drawn) [compound 90] | 3 | 8 | –
N#CCOc1ccc(N2CC(CO)OC2=S)cc1 (stereo not drawn) [compound 92] | 30 | 50 | –

SMILES | ED50 [1, 3] [mg/kg] | ED50 [2] [mg/kg] | ED50 [1] [mg/kg]
OCC1CN(c2ccc(OCc3cccc(Cl)c3)cc2)C(=S)O1 (stereo not drawn) [compound 93] | 9 | 6 | –
OCC1CN(c2ccc(OCc3ccc(Cl)cc3)cc2)C(=S)O1 (stereo not drawn) [compound 95] | 50 | 35 | –
OCC1CN(c2ccc(OCc3ccc(F)cc3)cc2)C(=S)O1 (stereo not drawn) [compound 96] | 4.7 | 3.6 | –
N#Cc1cccc(COc2ccc(N3CC(CO)OC3=S)cc2)c1 (stereo not drawn) [compound 97] | 3.9 | 3.2 | –
OCC1CN(c2ccc(OCc3cccc(C(F)(F)F)c3)cc2)C(=S)O1 (stereo not drawn) [compound 98] | 12.5 | 12.5 | –
CC(C)C(=O)OCC1CN(c2ccc(OCC3CCCCC3)cc2)C(=O)O1 (stereo not drawn) [compound 103] | 5 | 6 | –
CCCCOc1ccc(N2CC(COCC)OC2=O)cc1 (stereo not drawn) [compound 109] | 10 | 1 | –
COCC1CN(c2ccc(OCCCCC#N)cc2)C(=O)O1 (stereo not drawn) [compound 112] | 0.1 | 0.15 | –
O=[N+]([O-])c1cc(Cl)cc(COc2ccc(N3CC(CO)OC3=S)cc2)c1 (stereo not drawn) [compound 113] | 3.2 | 3.5 | –
CC(=O)OCC1CN(c2ccc(OCC3CCCCC3)cc2)C(=S)O1 (stereo not drawn) [compound 115] | 3.8 | 4.8 | –
COCC1CN(c2ccc(OCc3cccc(C#N)c3)cc2)C(=S)O1 (stereo not drawn) [compound 116] | 1.6 | 0.95 | –
CC(=O)OCC1CN(c2ccc(OCc3cccc([N+](=O)[O-])c3)cc2)C(=S)O1 (stereo not drawn) [compound 117] | 1.2 | 1.5 | –
O=C(OCC1CN(c2ccc(OCC3CCCCC3)cc2)C(=O)O1)C1CCCCC1 (stereo not drawn) [compound 121] | 11 | 8 | –
CCCCCCCCC(=O)OCC1CN(c2ccc(OCC3CCCCC3)cc2)C(=O)O1 (stereo not drawn) [compound 122] | 6.8 | 6.2 | –
CC(C)CCOc1ccc(N2CC(COC(=O)C(C)(C)C)OC2=O)cc1 (stereo not drawn) [compound 125] | 5 | 3.5 | –
CCCCCCCCC(=O)OCC1CN(c2ccc(OCCC(C)C)cc2)C(=O)O1 (stereo not drawn) [compound 126] | 4.4 | 1.8 | –
CC(C)CCOc1ccc(N2CC(COC(=O)C(C)C)OC2=O)cc1 (stereo not drawn) [compound 127] | 5 | 4.3 | –
CCCCC(=O)OCC1CN(c2ccc(OCCC(C)C)cc2)C(=O)O1 (stereo not drawn) [compound 128] | 7.2 | 4.8 | –
CC(C)CCOc1ccc(N2CC(COC(=O)C3CCCCC3)OC2=O)cc1 (stereo not drawn) [compound 129] | 7.5 | 12 | –
CC(=O)OCC1CN(c2ccc(OCc3cccc(F)c3)cc2)C(=O)O1 (stereo not drawn) [compound 130] | 6.2 | 9.6 | –
CCCCCCCCC(=O)OCC1CN(c2ccc(OCc3cccc(F)c3)cc2)C(=O)O1 (stereo not drawn) [compound 131] | 12 | 31 | –
CCCCCCCCC(=O)OCC1CN(c2ccc(OCc3cccc(C#N)c3)cc2)C(=O)O1 (stereo not drawn) [compound 133] | 6 | 5.2 | –
CCCCOc1ccc(N2CC(COCCC)OC2=O)cc1 (stereo not drawn) [compound 142] | 18 | 17.5 | –
